Test results: the NIST ThermoML archive (doi:10.1021/je100819f)
± gives the expanded uncertainty stated by the source.

Details: Crystal; DTA

Normal melting temperature: 197.5 ± 0.7 °C
SMILES: O=C1C=CC(=O)N1c1cc(F)c(Br)c(F)c1 [1-(4-bromo-3,5-difluorophenyl)-1H-pyrrole-2,5-dione]
